The text below walks through data of patent publication US7973069B2 (PTC Therapeutics, Inc., priority 2004, dated 2011).

Several values for one entry are separate records, joined by “and”; a condition that tells them apart may be missing. Identical values can stand only once.

This test has as its system HCV replicon. The test is classed as cell-based.
A word on the IC50: it is the point on the concentration scale where inhibition reaches its midpoint. Regarding `CCCNC(=O)Nc1ccc(-c2c(C#N)c3ccc(OCC)cc3n2C(C)C)cc1` [Compound 1099], the half-maximal inhibitory concentration (IC50) is 0.5 to 2 µM.
As to `CCOC(=O)Nc1ccc(-c2c(C#N)c3ccc(OC(F)F)cc3n2CC)cc1` [Compound 1131], the 50% inhibitory concentration (IC50) fell in the range of 0.5 to 2 µM.
The compound `CCCOC(=O)Nc1ccc(-c2c(C#N)c3ccc(OC(F)F)cc3n2CC)cc1` [Compound 1132] came in with an IC50 of 0.5 to 2 µM.
Next, `CCCOC(=O)Nc1ccc(-c2c(C#N)c3ccc(OCC)cc3n2C2CCC2)cc1` [Compound 972]: under 0.5 µM; `COc1ccc2c(c1)c(C#N)c(-c1ccc(NC(=O)OC(C)C)cc1)n2C1CCC1` [Compound 1232]: < 0.5 µM and 0.5 to 2 µM.
As for `CCn1c(-c2ccc(NS(=O)(=O)C3CC3)cc2)c(C#N)c2ccc(OC(F)(F)F)cc21` [Compound 883], the half-maximal inhibitory concentration (IC50) is under 0.5 µM.
As to `CCOc1ccc2c(C#N)c(-c3ccc(NC(=O)OCC(C)C)cc3)n(C3CCC3)c2c1` [Compound 979], the IC50 was under 0.5 µM.
`CCCNC(=O)Nc1ccc(-c2c(C#N)c3ccc(OCC)cc3n2CC(C)C)cc1` [Compound 1061] displayed an IC50 of 0.5 to 2 µM.
The result for `COc1ccc2c(C#N)c(-c3ccc(NC(=O)OCC(C)(C)C)cc3)n(C3CCC3)c2c1` [Compound 1078] reads < 0.5 µM and 0.5 to 2 µM; that for `CCn1c(-c2ccc(N3CCCS3(=O)=O)cc2)c(C#N)c2ccc(OCCn3cccn3)cc21` [Compound 908], 0.5 to 2 µM.
Consider `CCCn1c(-c2ccc(NS(=O)(=O)C3CC3)cc2)c(C#N)c2ccc(OCc3ccccc3)cc21` [Compound 924], for which the IC50 is 0.5 to 2 µM.
With `CCOc1ccc2c(C#N)c(-c3ccc(NC(=O)OC(C)CC)cc3)n(C3CCC3)c2c1` (stereo not drawn) [Compound 1265], the IC50 was under 0.5 µM.
`CCOC(=O)Nc1ccc(-c2c(C#N)c3ccc(OCC)cc3n2C2CCC2)cc1` [Compound 971] had an IC50 of under 0.5 µM.
`CCn1c(-c2ccc(N(C)S(C)(=O)=O)cc2)c(C#N)c2ccc(C(F)(F)F)cc21` [Compound 1002] gave an IC50 of 0.5 to 2 µM.
On to `CCCOC(=O)Nc1ccc(-c2c(C#N)c3cc(OC)ccc3n2C2CCC2)cc1` [Compound 1177], for which the IC50 was < 0.5 µM and 0.5 to 2 µM.
The compound `N#Cc1c(-c2ccc(NC(=O)OC3CCC3)cc2)n(C2CCC2)c2cc(OCCCCN3CCCC3)ccc12` [Compound 1258] had an IC50 of under 0.5 µM.
Compound `CCCCn1c(-c2ccc(NC(=O)NCC)cc2)c(C#N)c2ccc(OCC)cc21` [Compound 1016] returned an IC50 of 0.5 to 2 µM.
`COc1ccc2c(C#N)c(-c3ccc(NC(=O)NC(C)C)cc3)n(CC3CC3)c2c1` [Compound 987]: the 50% inhibitory concentration (IC50) lay within 0.5 to 2 µM.
The result for `CCCCNC(=O)Nc1ccc(-c2c(C#N)c3cc(OC)ccc3n2C2CCC2)cc1` [Compound 1164] reads < 0.5 µM and > 2 µM; that for `COc1ccc2c(c1)c(C#N)c(-c1ccc(NS(=O)(=O)C(C)C)cc1)n2C1CCC1` [Compound 1231], 0.5 to 2 µM.
Next, `CCCS(=O)(=O)Nc1ccc(-c2c(C#N)c3ccc(OC(F)F)cc3n2C2CCCC2)cc1` [Compound 1188]: 0.5 to 2 µM; `CC1(COC(=O)Nc2ccc(-c3c(C#N)c4ccc(OCC5CCCO5)cc4n3C3CCC3)cc2)CC1` (stereo not drawn) [Compound 1284]: under 0.5 µM.
For the compound `CCn1c(-c2ccc(NC(=O)N3CCCCC3)cc2)c(C#N)c2ccc(OC)cc21` [Compound 1088], the IC50 is 0.5 to 2 µM.
Regarding `CCOc1ccc2c(C#N)c(-c3ccc(NS(=O)(=O)CCCCl)cc3)n(C3CCC3)c2c1` [Compound 935], the IC50 was < 0.5 µM and 0.5 to 2 µM.
With `CCn1c(-c2ccc(NC(=O)OCCCl)cc2)c(C#N)c2ccc(OCCCN3CCOCC3)cc21` [Compound 1114], the IC50 is under 0.5 µM.
Next, `CCCOc1ccc2c(C#N)c(-c3ccc(NC(=O)OCC(C)(C)C)cc3)n(C(C)C)c2c1` [Compound 1207]: under 0.5 µM; `CCCOc1ccc2c(C#N)c(-c3ccc(NC(=O)OCC(C)C)cc3)n(C(C)C)c2c1` [Compound 1206]: under 0.5 µM.
`CCOc1ccc2c(C#N)c(-c3ccc(NC(=O)OC(C)C)cc3)n(C3CCCC3)c2c1` [Compound 1129] had an IC50 of under 0.5 µM.
The compound `CCn1c(-c2ccc(NC(=O)OC)c(C)c2)c(C#N)c2ccc(OC)cc21` [Compound 963] gave an IC50 of 0.5 to 2 µM.
In turn, `CCCNC(=O)Nc1ccc(-c2c(C#N)c3ccc(OCc4cccnc4)cc3n2CC)cc1` [Compound 1185] gave a half-maximal inhibitory concentration (IC50) of under 0.5 µM.
The result for `CCn1c(-c2ccc(NS(=O)(=O)C3CC3)cc2)c(C#N)c2ccc(OCCCN3CCOCC3)cc21` [Compound 1117] reads 0.5 to 2 µM; that for `CCOC(=O)Nc1ccc(-c2c(C#N)c3ccc(OCC)cc3n2C(C)C)cc1` [Compound 1065], 0.5 to 2 µM and < 0.5 µM; that for `CCn1c(-c2ccc(NC(=O)N3CCCC3)cc2)c(C#N)c2ccc(OC)cc21` [Compound 1089], 0.5 to 2 µM.
As for `CCOc1ccc2c(C#N)c(-c3ccc(NC(=O)OCC4CCC4)cc3)n(C3CCC3)c2c1` [Compound 1158], the IC50 was under 0.5 µM.
Turning to `CCCOC(=O)Nc1ccc(-c2c(C#N)c3ccc(OCC)cc3n2CC)cc1` [Compound 949], the 50% inhibitory concentration (IC50) lay in the range of 0.5 to 2 µM.
Next, `CCOc1ccc2c(C#N)c(-c3ccc(NC(=O)OC(C)c4ccccc4)cc3)n(C3CCC3)c2c1` (stereo not drawn) [Compound 1289]: under 0.5 µM; `CCOc1ccc2c(C#N)c(-c3ccc(NP(=O)(OCC)OCC)cc3)n(C3CCC3)c2c1` [Compound 936]: under 0.5 µM; `COc1ccc2c(C#N)c(-c3ccc(NC(=O)NC(C)C)cc3)n(C3CCC3)c2c1` [Compound 1082]: 0.5 to 2 µM.
Regarding `CCCCNC(=O)Nc1ccc(-c2c(C#N)c3cc(OC)ccc3n2CC)cc1` [Compound 1012], the IC50 is 0.5 to 2 µM.
The result for `CCCOC(=O)Nc1ccc(-c2c(C#N)c3cc(OCc4ccccc4)ccc3n2CC)cc1` [Compound 926] reads 0.5 to 2 µM; that for `CCCS(=O)(=O)Nc1ccc(-c2c(C#N)c3ccc(OCC)cc3n2CC2CCC2)cc1` [Compound 1170], 0.5 to 2 µM.
`COc1ccc2c(C#N)c(-c3ccc(NS(=O)(=O)C(C)C)cc3)n(C3CCC3)c2c1` [Compound 1103] came in with an IC50 of 0.5 to 2 µM.
On to `CCn1c(-c2ccc(NC(=O)OCC(C)C)cc2)c(C#N)c2ccc(OC(F)F)cc21` [Compound 1134], for which the concentration for half-maximal inhibition (IC50) was in the range of 0.5 to 2 µM.
Compound `CCOc1ccc2c(C#N)c(-c3ccc(NC(=O)OCCCN4CCOCC4)cc3)n(C3CCC3)c2c1` [Compound 1210] gave an IC50 of under 0.5 µM.
The compound `CC(C)NC(=O)Nc1ccc(-c2c(C#N)c3ccc(OCCCn4ccnc4)cc3n2C2CCC2)cc1` [Compound 1308] came in with an IC50 of under 0.5 µM.
`CCOc1ccc2c(C#N)c(-c3ccc(NC(=O)OC(C)C)cc3)n(C3CCC3)c2c1` [Compound 973] returned a 50% inhibitory concentration (IC50) of under 0.5 µM.
Turning to `CCn1c(-c2ccc(NC(=O)C3CC3)cc2)c(C#N)c2ccc(OCCN3CCSCC3)cc21` [Compound 1090], the IC50 was 0.5 to 2 µM.
The result for `COc1ccc2c(C#N)c(-c3ccc(NC(=O)OC(C)C)cc3)n(C3CCC3)c2c1` [Compound 1076] reads under 0.5 µM; that for `CC(C)NC(=O)Nc1ccc(-c2c(C#N)c3ccc(OCCCN4CCN(C)CC4)cc3n2C2CCC2)cc1` [Compound 1307], 0.5 to 2 µM.
For the compound `CCCOC(=O)Nc1ccc(-c2c(C#N)c3ccc(OCC)cc3n2CCC)cc1` [Compound 1055], the 50% inhibitory concentration (IC50) is 0.5 to 2 µM and < 0.5 µM.
The result for `CCOc1ccc2c(c1)c(C#N)c(-c1ccc(NC(=O)OCC3CC3)cc1)n2C1CCC1` [Compound 1291] reads under 0.5 µM.
In turn, `CCCCn1c(-c2ccc(NC(=O)NC(C)C)cc2)c(C#N)c2ccc(OCC)cc21` [Compound 1017] gave a half-inhibitory concentration (IC50) of under 0.5 µM.
Compound `CC1CCN(CCOc2ccc3c(C#N)c(-c4ccc(NC(=O)OC(C)C)cc4)n(C4CCC4)c3c2)CC1` [Compound 1272] returned a half-maximal inhibitory concentration (IC50) of under 0.5 µM.
With `CCCCNC(=O)Nc1ccc(-c2c(C#N)c3cc(OCC)ccc3n2C2CCC2)cc1` [Compound 1225], the half-maximal inhibitory concentration (IC50) is 0.5 to 2 µM and < 0.5 µM.
Compound `CC(C)(C)OC(=O)Nc1ccc(-c2c(C#N)c3ccc(OCCN4CCCC4)cc3n2C2CCC2)cc1` [Compound 1121] showed an IC50 of under 0.5 µM.
For the compound `CCn1c(-c2ccc(N3CCCS3(=O)=O)cc2)c(C#N)c2ccc(NC(=O)OC(C)(C)C)cc21` [Compound 1049], the IC50 was under 0.5 µM.
Turning to `CCCn1c(-c2ccc(NS(=O)(=O)CCC)cc2)c(C#N)c2cc(OC)ccc21` [Compound 1041], the half-maximal inhibitory concentration (IC50) is 0.5 to 2 µM and < 0.5 µM.
`C=CCNC(=O)Nc1ccc(-c2c(C#N)c3ccc(OC(F)F)cc3n2CC)cc1` [Compound 1139] showed a concentration for half-maximal inhibition (IC50) of 0.5 to 2 µM.
Regarding `CCn1c(-c2ccc(N3CCCS3(=O)=O)cc2)c(C#N)c2ccc(C(F)(F)F)cc21` [Compound 969], the 50% inhibitory concentration (IC50) is under 0.5 µM.
With `CCOc1ccc2c(C#N)c(-c3ccc(N(CC)C(=O)OC(C)C)cc3)n(C3CC3)c2c1` [Compound 1237], the concentration for half-maximal inhibition (IC50) lay in the range of 0.5 to 2 µM.
For `CCn1c(-c2cccc(NC(=O)OCCCl)c2)c(C#N)c2ccc(OCCCN3CCOCC3)cc21` [Compound 1044], the IC50 is under 0.5 µM.
In the case of `CCCCOC(=O)Nc1ccc(-c2c(C#N)c3cc(OCC)ccc3n2C2CCC2)cc1` [Compound 1197], the IC50 is 0.5 to 2 µM and < 0.5 µM.
On to `COc1ccc2c(C#N)c(-c3ccc(NS(=O)(=O)C(C)C)cc3)n(CC3CCCC3)c2c1` [Compound 891], for which the half-maximal inhibitory concentration (IC50) fell in the range of 0.5 to 2 µM.
With `CC(C)NC(=O)Nc1ccc(-c2c(C#N)c3ccc(OCCCN4CCCC4)cc3n2C2CCC2)cc1` [Compound 1309], the IC50 was under 0.5 µM.
Turning to `N#Cc1c(-c2ccc(NS(=O)(=O)C3CC3)cc2)n(C2CCC2)c2cc(OCC3CCCO3)ccc12` (stereo not drawn) [Compound 1280], the IC50 is under 0.5 µM.
`CC(OC(=O)Nc1ccc(-c2c(C#N)c3ccc(OCC4CCCO4)cc3n2C2CCC2)cc1)C1CC1` (stereo not drawn) [Compound 1281] registered an IC50 of under 0.5 µM.
`C=CCNC(=O)Nc1ccc(-c2c(C#N)c3cc(OC)ccc3n2CCC)cc1` [Compound 1001] returned a concentration for half-maximal inhibition (IC50) of 0.5 to 2 µM.
Regarding `CCn1c(-c2ccc(N)c(F)c2)c(C#N)c2ccc(OC)cc21` [Compound 880], the concentration for half-maximal inhibition (IC50) lay in the range of 0.5 to 2 µM.
For `CCOc1ccc2c(C#N)c(-c3ccc(NC(=O)OC4CCCC4)cc3)n(C(C)CC)c2c1` (stereo not drawn) [Compound 1222], the half-maximal inhibitory concentration (IC50) was in the range of 0.5 to 2 µM.
Consider `CCN1CCN(c2ccc(-c3c(C#N)c4ccc(OC)cc4n3CC)cc2)S1(=O)=O` [Compound 1110], for which the 50% inhibitory concentration (IC50) was in the range of 0.5 to 2 µM.
For `CCOC(=O)Nc1ccc(-c2c(C#N)c3cc(OC)ccc3n2C2CCC2)cc1` [Compound 1176], the IC50 was in the range of 0.5 to 2 µM.
Compound `C=CCNC(=O)Nc1ccc(-c2c(C#N)c3ccc(OC(F)F)cc3n2CC2CC2)cc1` [Compound 1070] showed an IC50 of 0.5 to 2 µM.
